{"source": "paper PMC6290777", "about": "“Inhalation of the prodrug PI3K inhibitor CL27c improves lung function in asthma and fibrosis” (Nature Communications, 2018)", "key": {"[1]": {"test_system": "fMLP-activated LPS-primed neutrophils", "assay": "ROS production by fMLP-activated LPS-primed neutrophils", "format": "cell-based, mouse", "details": "fMLP 2.5 μM; CL27c 1 and 10 µM", "procedure": "Production of ROS was determined by primary isolated neutrophils (5 × 10^6/mL) (as described above) with lipopolysaccharide (1 μg/mL) for 1 h and then preincubating them with luminol (20 μg/mL) and horseradish peroxidase (35 μg/mL) in RPMI medium plus 10% FCS. The cells were subsequently stimulated with 2.5 μM formyl-methionyl-leucyl-phenylalanine (fMLP, Sigma-Aldrich), and light emission was recorded every 5 sec for a period of 300 sec in a Berthold MicroLumat Plus luminometer (Berthold Technologies)."}, "[2]": {"assay": "Microsomial stability, rat", "format": "in vitro ADME", "details": "rat liver microsomes, NADPH", "procedure": "To define whether this prodrug was suitable for inhaled administration, CL27c was studied to evaluate selected ADME (absorption, distribution, metabolism, and excretion) and pharmacokinetic properties. First, stability of CL27c and CL27e was analyzed in mouse plasma (Supplementary Table 1) and in mouse, rat, and human liver microsomes in the presence of nicotinamide adenine dinucleotide phosphate (NADPH; Supplementary Table 2). Next, clearance of CL27c was analyzed in C57BL/6J mice after either intra-venous or oral administration. […] Clearance of CL27c and CL27e after oral administration could not be determined due to their low bioavailability (Supplementary Table 3). Next, pharmacokinetics after inhalation was studied in C57BL/6J mice after delivering an aerosolized micro-suspension of CL27c. As shown in Table 1 and Supplementary Fig. 1b, CL27c dose-dependently reached the lungs and its metabolite CL27e was detectable after inhalation of the highest dose. […] Therefore, the inhaled prodrug promotes local effects but prevents systemic absorption of pharmacologically relevant amounts of the active compound. […]\nAll tests for the microsomial stability of CL27c were conducted by the Istituto di Ricerche Biomediche (RBM) SpA – Merck Serono, Ivrea, Italy. […]\nThen, cells […]\npretreated with different doses of CL27c were incubated at 37°C and 5% CO 2 for 10 minutes. […]"}, "[3]": {"assay": "Glycemia and insulin challenge after inhaled CL27c", "format": "in vivo, mice", "details": "N.S. vs vehicle", "procedure": "To define whether this prodrug was suitable for inhaled administration, CL27c was studied to evaluate selected ADME (absorption, distribution, metabolism, and excretion) and pharmacokinetic properties. First, stability of CL27c and CL27e was analyzed in mouse plasma (Supplementary Table 1) and in mouse, rat, and human liver microsomes in the presence of nicotinamide adenine dinucleotide phosphate (NADPH; Supplementary Table 2). Next, clearance of CL27c was analyzed in C57BL/6J mice after either intra-venous or oral administration. […] Clearance of CL27c and CL27e after oral administration could not be determined due to their low bioavailability (Supplementary Table 3). Next, pharmacokinetics after inhalation was studied in C57BL/6J mice after delivering an aerosolized micro-suspension of CL27c. As shown in Table 1 and Supplementary Fig. 1b, CL27c dose-dependently reached the lungs and its metabolite CL27e was detectable after inhalation of the highest dose. […] Therefore, the inhaled prodrug promotes local effects but prevents systemic absorption of pharmacologically relevant amounts of the active compound.\nAnimals were fasted overnight and, the day after, they were treated for 30 min with aerosolized CL27c (2 mg/ml in 0.5 % tylaxopol/saline solution). […]"}}}
{"smiles": "COC(=O)c1cccc(Cn2cc(-c3cccc4c(=O)cc(N5CCOCC5)[nH]c34)nn2)c1", "note": "[CL27c]", "values": [{"measurement": "reactive oxygen species production (respiratory burst)", "setting": "[1]", "result": "efficiently and dose-dependently inhibited reactive oxygen species production"}, {"measurement": "Clint (intrinsic clearance)", "setting": "[2]", "result": "0.2 ± 0.005", "unit": "ml/min/mg prot"}, {"measurement": "t1/2", "setting": "[2]", "result": "5.9 ± 0.1", "unit": "min"}, {"measurement": "drop in glycemia 10 min after an insulin challenge", "setting": "[3]", "result": "17.45 ± 3.00", "unit": "% drop"}, {"measurement": "glycemia", "setting": "[3]", "result": "213.0 ± 5.6", "unit": "mg/dL"}]}
